This is an account of results in patent US4704451A, “Mitogenic peptides” (Washington University, priority 1985, dated 1987).

Assay [1] relates to J774 murine macrophage-like cells. Description: 3[H]-TdR incorporation in growth-arrested J774 cells. In kind it is cell-based. Here is the method: (§1) The growth stimulation of macrophage-like cells can be determined by measuring the thymidine uptake of the cells at varying concentrations of the mitogenic peptides of the present invention. This was determined for several macrophage-like cell lines including J774, P388Dl, RAW and PU5. These are well-known murine cell lines available, for example, from the American Type Culture Collection, Rockville, Md.
(§2) ^3 [H]-TdR incorporation. Various cell lines were plated in Dulbeccos's Modified Eagle Medium (DMEM) containing 10% fetal calf serum (FCS) in […] humidified atmosphere at 37° C. at an initial density of 5×10^5 per well in 24 well disposable plastic plates (Falcon, Oxnard, Calif.). Arrest of DNA synthesis (i.e., G0 /G1) was achieved by incubating the cells for 48 hours in serum-free DMEM containing 0.1% bovine serum albumin (BSA). The cells were then exposed to the peptide or to various […], or to FCS for 48 hours. Enhanced thymidine incorporation was assessed following a 2 hour pulse of N-methyl^3 [H]-TdR (1 μCi/ml). The cells were washed ×3 in PBS (phosphate buffered saline, pH 7.4) at 4, precipitated with 10% trichloroacetic acid (30 min at 4) and the insoluble material extracted ×2 with ETOH:ET2 O (3:1 v/v). The precipitate was solubilized in N NaOH and aliquots withdrawn for protein determinations using a dye-binding assay (Bio Rad Labs., Richmond, Calif.) and liquid scintillation spectrometry.
The various cell lines employed in these tests were the murine macrophage-like cell lines J774, P388D1, RAW and PU5. The various […] used in these tests were platelet-derived growth factor (PDGF), epidermal growth factor (EGF), fibroblast growth factor (FGF), and nerve growth factor (NGF). For background information on these known polypeptide growth factors, see, for example, the recent review article by Kris is et al., Biotechnology, February 1985, pp. 135-140; and the comprehensive review in Hormonal Proteins and Peptides, Ed. by Choh Hao Li, Vol. 12, "Growth Factors," Academic Press, 1984. EGF, NGF and FGF are commercially available from Biomedical Technologies, Cambridge, Mass. In a representative test, 24 hours following exposure of the growth-arrested cells to optimal concentrations of the peptide (i.e., 10^-8 M), cell numbers increased approximately two-fold from a control value of […] cells/culture well. […] The results are set forth in FIG. 2 and in Table I, below. In FIG. 2, the baseline tritiated thymidine (^3 [H]-TdR) incorporation in quiescent J774 cells was 5000 cpm±420 s.e.m. (standard error of the mean) per well. The results are expressed as the mean of triplicate determinations.

The test system of the next assay is macrophage-like cells. Description: Mitogenic activity for macrophage-like cells. Type of assay: cell-based. As for the experimental part:
as §1

In assay [2] the test system is P388D1 macrophage-like cell line. The assay can be described thus: 3[H]-TdR incorporation in growth-arrested P388D1 cells. Type of assay: cell-based, murine. Conditions: test (2), P388D1, 10^-7 M (optimal concentration), mean ± s.e.m. As for the experimental part: as §1
(§3) ^3 [H]-TdR incorporation. Various cell lines were plated in Dulbeccos's Modified Eagle Medium (DMEM) containing 10% fetal calf serum (FCS) in […] humidified atmosphere at 37° C. at an initial density of 5×10^5 per well in 24 well disposable plastic plates (Falcon, Oxnard, Calif.). Arrest of DNA synthesis (i.e., G0 /G1) was achieved by incubating the cells for 48 hours in serum-free DMEM containing 0.1% bovine serum albumin (BSA). The cells were then exposed to the peptide or to various […], or to FCS for 48 hours. Enhanced thymidine incorporation was assessed following a 2 hour pulse of N-methyl^3 [H]-TdR (1 μCi/ml). […]
(§4) The various cell lines employed in these tests were the murine macrophage-like cell lines J774, P388D1, RAW and PU5. […] The results are expressed as the mean of triplicate determinations.

For assay [3], the system named is RAW macrophage-like cell line. Description: 3[H]-TdR incorporation in growth-arrested RAW cells. Type of assay: cell-based, murine. The settings on record: test (2), 10^-8 M (optimal concentration), mean ± s.e.m. As for the experimental part:
as §1, §3, §4

Assay [4] deals with PU5 macrophage-like cell line. The assay can be described thus: 3[H]-TdR incorporation in growth-arrested PU5 cells. Type of assay: cell-based, murine. Conditions: test (2), PU5, 10^-6 M (optimal concentration), mean ± s.e.m. As for the experimental part: as §1, §3, §4
Assay [5] deals with murine macrophage-like cell lines J774, P388D1, RAW and PU5. Description: Cell number (proliferation) of growth-arrested macrophage-like cells. In kind it is cell-based. The settings on record: 24 hours after exposure of growth-arrested cells to 10^-8 M (optimal concentration). Here is the method:
as §2
The various cell lines employed in these tests were the murine macrophage-like cell lines J774, P388D1, RAW and PU5. The various […] used in these tests were platelet-derived growth factor (PDGF), epidermal growth factor (EGF), fibroblast growth factor (FGF), and nerve growth factor (NGF). […] The results are expressed as the mean of triplicate determinations.

Where [6] appears, read: test (1), J774, >500 ng per well (highest concentration tested), mean ± s.e.m.

For fibroblast growth factor [FGF], in assay [1] (setting [6]), the “3[H]-TdR Incorporation/mg Protein (% Increase)” value was 0 ± 0.4 % Increase.

platelet-derived growth factor [PDGF]: in assay [1] (setting [6]), the “3[H]-TdR Incorporation/mg Protein (% Increase)” value is on record as 9.4 ± 0.3 % Increase. In the case of “H-NKNFTENDLL-OH [Peptide IV, H-Asn-Lys-Asn-Phe-Thr-Glu-Asn-Asp-Leu-Leu-OH]”, the “mitogenic activity for macrophage-like cells” value with macrophage-like cells was “inactive”.

“H-TENDLL-OH [Peptide III, H-Thr-Glu-Asn-Asp-Leu-Leu-OH]”: the “mitogenic activity for macrophage-like cells” value in the assay with macrophage-like cells was “inactive”. For the substance epidermal growth factor [EGF], the “3[H]-TdR Incorporation/mg Protein (% Increase)” value in assay [1] (setting [6]) was found to be 5.2 ± 0.2 % Increase. Still for that read-out and setting: as for nerve growth factor [NGF], the figure is 0 ± 0.5 % Increase. Turning to “H-YPPWNKNFTENDLL-OH [Peptide I, H-Tyr-Pro-Pro-Trp-Asn-Lys-Asn-Phe-Thr-Glu-Asn-Asp-Leu-Leu-OH]”, the “3[H]-TdR Incorporation/mg Protein (% Increase)” value is 140± 8.5 % Increase in assay [1] (test (1), J774, 10^-8 M (optimal concentration), 48 h exposure, mean ± s.e.m. of triplicate cultures); 190± 12 % Increase in assay [1] (test (2), J774, 10^-8 M (optimal concentration), mean ± s.e.m.); 226± 22 % Increase in assay [2]; 276± 18 % Increase in assay [3]; 112± 4.4 % Increase in assay [4]. In addition, the “increase of cell numbers over control” value in assay [5] is “approximately two-fold”.
